# Measurements: patent publication US12496287B2, “Compositions and methods for treating macrophage activation syndrome” (THE CHILDREN'S HOSPITAL OF PHILADELPHIA, priority 2019, dated 2025)
# Structures can show the parent of a compound that is named as a salt.
# B1: IFNγ: interferon gamma added back intraperitoneally to IFNγ-/- mice (protein, UniProt P01580 23-155, looked up)
# Interferon gamma: HGTVIESLESLNNYFNSSGIDVEEKSLFLDIWRNWQKDGDMKILQSQIISFYLRLFEVLKDNQAISNNISVIESHLITTFFSNSKAKKDAFMSIAKFEVNNPQVQRQAFNELIRVVHQLLPESSLRKRKRSRC
# Assays:
# [1] = low dose CO (100-125 ppm); patients with idiopathic pulmonary fibrosis or COPD; cited from earlier work
# Nrf2/HO-1 = assay: MMF induction of Nrf2 and HO-1 in macrophages of injected mice (Western blot); assay type: in vivo, mouse
# Experimental: MAS was induced by repeated activation of TLR9 as described (Behrens, et al. (2011) J. Clin. Invest., 121(6):2264-77; Weaver, et al. (2016) Proc. Natl. Acad. Sci., 113(39):10944-9). Briefly, 8-week old mice were injected with five doses of PBS or 50 μg of CpG1826 intraperitoneally every other day for 9 days, while MMF (cat no: 4511, TOCRIS (Bristol, UK)) in DMSO was injected at 45 mg/Kg body weight based on standard dosing used in other murine studies (Cho, et al. (2015) J. Neuroinflammation 12:239; Yao, et al. (2016) Transl. Stroke Res., 7(6):535-47), every day once in the morning and once in the evening. The control group received DMSO instead of MMF. […] Spleens and livers were harvested and were formalin fixed followed by paraffin embedment for tissue sectioning and slide preparation for histology and immunohistochemistry (IHC). To obtain single suspension of spleen leukocytes, spleens at 37° C. were disrupted and incubated in the presence of DNAase and collagenase, followed by filtering over 70-μm strainers and RBC lysis. The cells were counted and then adhered for 2 hours on petri dishes to obtain plastic adherent macrophages.
# Protein samples (10-12 μg) were resolved by SDS-PAGE on 4-12% Bis-Tris gels (Invitrogen), electrotransferred to nitrocellulose membranes (Cat no. 10484060, Bio-Rad (Hercules, CA)), and assessed for the immunosignal of proteins using the antibodies against HO-1 (cat no. ADI-SPA-896, Enzo (Farmingdale, NY)), Nrf2 (Cat no. 12721, Cell Signaling (Danvers, MA)), Erk (Cat no. 4695, Cell signaling), pErk (Cat no. 4379, Cell Signaling), Cyclophilin B (CyPB, Cat no. PA1-027A, ThermoFisher Scientific), β tubulin (Cat no. 2146, Cell Signaling), β actin (Cat No. 66009-1-Ig, Proteintech (Rosemont, IL)), Calnexin (Cat no. ab22595, abcam (Cambridge, UK) and Histone 3 (Cat no. 4499, Cell Signaling). Fluorescence tagged respective secondary antibodies obtained from Li-COR (Lincoln, Neb.)—Goat-anti-Rabbit-antibody (IRDye® 800CW), or Donkey-anti-mouse-antibody (IRDye® 800CW) or Donkey anti-Mouse IgG (IRDye® 680RD) were then used. […]
# TLR9-MAS murine model = TLR9-MAS murine model (repeated CpG), MMF treatment, C57BL/6 mice; assay type: in vivo, mouse
# Experimental: (§1) MAS was induced by repeated activation of TLR9 as described (Behrens, et al. (2011) J. Clin. Invest., 121(6):2264-77; Weaver, et al. (2016) Proc. Natl. Acad. Sci., 113(39):10944-9). Briefly, 8-week old mice were injected with five doses of PBS or 50 μg of CpG1826 intraperitoneally every other day for 9 days, while MMF (cat no: 4511, TOCRIS (Bristol, UK)) in DMSO was injected at 45 mg/Kg body weight based on standard dosing used in other murine studies (Cho, et al. (2015) J. Neuroinflammation 12:239; Yao, et al. (2016) Transl. Stroke Res., 7(6):535-47), every day once in the morning and once in the evening. The control group received DMSO instead of MMF. On day-10 mice were euthanized 24 hours after the last MMF injection, bled terminally to collect blood for complete blood count (CBC) and differential count, and serum for cytokine analysis by ELISA. Spleens and livers were harvested and were formalin fixed followed by paraffin embedment for tissue sectioning and slide preparation for histology and immunohistochemistry (IHC). To obtain single suspension of spleen leukocytes, spleens at 37° C. were disrupted and incubated in the presence of DNAase and collagenase, followed by filtering over 70-μm strainers and RBC lysis. The cells were counted and then adhered for 2 hours on petri dishes to obtain plastic adherent macrophages. TLR9 activation induced cytokines from cells supernatants and serum were measured by using the ELISA kits from BD OptEIA™ (Cat nos. IL-12: 555256, IL-10: 555252, TNFα: 555268 and IL-6: 555240; Franklin Lakes, NJ).
# TLR9-MAS = TLR9-MAS in HMOX1^WT and HMOX1^fl/fl mice, MMF treatment; assay type: in vivo, mouse
# Description: C57BL/6 (WT) and LysM-Cre mice were purchased from The Jackson Laboratory (Bar Harbor, ME). HMOX1^fl/fl mice were crossbred with LysM-Cre mice and genotyped regularly to obtain mice with deletion of the HO-1 gene in myeloid lineage and are designated as: HMOX1^WT (intact HO-1), HMOX1^WT/fl (x LysM-cre, HO-1-haplodeficient,), and HMOX1^fl/fl (x LysM-Cre, complete HO-1-deficiency).
# as §1, with “macrophages.” for “macrophages. TLR9 activation induced cytokines from cells supernatants and serum were measured by using the ELISA kits from BD OptEIA™ (Cat nos. IL-12: 555256, IL-10: 555252, TNFα: 555268 and IL-6: 555240; Franklin Lakes, NJ).”
# Slides from paraffin-embedded tissue sections were stained with hematoxylin and eosin or were immune-stained for HO-1 (cat no. ADI-SPA-896, Enzo), followed by nuclear stain using prolong gold antifade reagent with Dapi (P36931, Invitrogen (Carlsbad, CA)). Images were acquired on an Eclipse 90i microscope (Nikon (Melville, NY)) using NIS-ELEMENTS software.
# (§2) TLR9 activation induced cytokines from cells supernatants and serum were measured by using the ELISA kits from BD OptEIA™ (Cat nos. IL-12: 555256, IL-10: 555252, TNFα: 555268 and IL-6: 555240; Franklin Lakes, NJ).
# HO-1 [2] = molecular target: T1, HO-1 (Mus musculus, UniProt P14901); assay: Cytokines in supernatants of CpG-stimulated BMDMs treated with ZnPP and/or CORM2 (ELISA); assay type: cell-based
# T1 construct: endogenous in cells; host or cells: mouse bone marrow derived macrophages (BMDM)
# T1 sequence (P14901 1-289): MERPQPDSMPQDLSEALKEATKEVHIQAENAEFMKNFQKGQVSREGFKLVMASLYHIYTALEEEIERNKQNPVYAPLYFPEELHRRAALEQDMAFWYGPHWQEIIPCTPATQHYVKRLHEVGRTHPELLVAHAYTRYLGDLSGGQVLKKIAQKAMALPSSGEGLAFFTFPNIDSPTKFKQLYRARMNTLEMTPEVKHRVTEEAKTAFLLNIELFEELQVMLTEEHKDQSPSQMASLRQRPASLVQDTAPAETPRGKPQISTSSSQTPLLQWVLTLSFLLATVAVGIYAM
# Experimental: Bone marrow (BM) was extracted from the hind limbs of mice and filtered over a 70-μm strainer to obtain a single cell suspension, followed by RBC lysis. Bone marrow derived macrophages (BMDM) were derived by culture in M-CSF-enriched media of L929 cells. RAW264.7 cells were obtained from ATCC (Manassas, VA). Class B CpG1826 oligonucleotide was synthesized by Integrated DNA Technologies (Coralville, IA). Macrophages were treated with CpG (1 μg/ml) for 18 to 20 hours for cytokine analysis in cell supernatant, and for 0 to 2 hours for analysis of protein expression level by Western blot treated as indicated.
# as §2
# HO-1 [3] = assay: Splenic HO-1 expression in vivo after repeated CpG treatment (IHC, Western blot); parameters: species or system mouse; conditions: IFNγ alone, intraperitoneally, IFNγ-/- mice
# Experimental: MAS was induced by repeated activation of TLR9 as described (Behrens, et al. (2011) J. Clin. Invest., 121(6):2264-77; Weaver, et al. (2016) Proc. Natl. Acad. Sci., 113(39):10944-9). Briefly, 8-week old mice were injected with five doses of PBS or 50 μg of CpG1826 intraperitoneally every other day for 9 days, while MMF (cat no: 4511, TOCRIS (Bristol, UK)) in DMSO was injected at 45 mg/Kg body weight based on standard dosing used in other murine studies (Cho, et al. (2015) J. Neuroinflammation 12:239; Yao, et al. (2016) Transl. Stroke Res., 7(6):535-47), every day once in the morning and once in the evening. The control group received DMSO instead of MMF. On day-10 mice were euthanized 24 hours after the last MMF injection, bled terminally to collect blood for complete blood count (CBC) and differential count, and serum for cytokine analysis by ELISA. Spleens and livers were harvested and were formalin fixed followed by paraffin embedment for tissue sectioning and slide preparation for histology and immunohistochemistry (IHC). To obtain single suspension of spleen leukocytes, spleens at 37° C. were disrupted and incubated in the presence of DNAase and collagenase, followed by filtering over 70-μm strainers and RBC lysis. The cells were counted and then adhered for 2 hours on petri dishes to obtain plastic adherent macrophages. […]
# [4] = spleen plastic adherent macrophages, MMF i.p. every 12 hours, 3 doses, 4 hours after last dose
# [5] = day 10, MMF twice a day, CpG every other day
molecule,measurement,setting,value
"[C-]#[O+] [CO, carbon monoxide]",tolerability,[1],tolerated
"COC(=O)/C=C/C(=O)O [MMF, monomethyl fumarate]",HO-1 expression in splenic and peritoneal macrophages,Nrf2/HO-1; MMF treatment,increased
same,HO-1 immunosignal relative to DMSO control,Nrf2/HO-1; [4],significantly increased
same,Nrf2 immunosignal relative to DMSO control,Nrf2/HO-1; [4],significantly increased
same,cellularity in spleen,TLR9-MAS murine model; MMF + CpG,reduced cellularity
same,organomegaly of liver,TLR9-MAS murine model; MMF + CpG,reduced
same,organomegaly of spleen,TLR9-MAS murine model; MMF + CpG,reduced
same,serum IL-10,"TLR9-MAS murine model; day 10, MMF 45 mg/Kg twice a day, CpG every other day",significantly higher
same,erythrocyte count in blood,"TLR9-MAS murine model; day 10, MMF + CpG",corrected
same,platelet count in blood,"TLR9-MAS murine model; day 10, MMF + CpG",corrected
same,serum IFNγ,TLR9-MAS murine model; [5],drop
same,serum IL-12,TLR9-MAS murine model; [5],drop
same,serum IL-10 elevation,TLR9-MAS; CpG treated HMOX1^WT mice,3 fold
same,serum IL-10 elevation effect,TLR9-MAS; CpG treated HMOX1^fl/fl mice,completely lost
same,serum IFNγ,TLR9-MAS; CpG treated HMOX1 mice,unaffected
same,serum IL-12,"TLR9-MAS; CpG treated HMOX1 mice, HO-1 independent",slightly reduced
same,recovery from anemia (RBC),TLR9-MAS; HMOX1^WT mice,almost complete recovery
same,recovery from thrombocytopenia (platelets),TLR9-MAS; HMOX1^WT mice,almost complete recovery
same,hepatosplenomegaly,TLR9-MAS; HMOX1^fl/fl mice,partially protected
same,recovery from anemia (RBC),TLR9-MAS; HMOX1^fl/fl mice,partial recovery
same,recovery from thrombocytopenia (platelets),TLR9-MAS; HMOX1^fl/fl mice,partial recovery
same,lobular inflammatory score (liver),TLR9-MAS; both WT and HMOX1^fl/fl mice,reduce
same,portal inflammatory score (liver),TLR9-MAS; both WT and HMOX1^fl/fl mice,reduce
same,histologic evidence of endothelial activation,TLR9-MAS; independent of mouse genotype,reduce
"C=CC1=C(C)c2cc3[n-]c(cc4nc(cc5[n-]c(cc1n2)c(C)c5C=C)C(C)=C4CCC(=O)O)c(CCC(=O)O)c3C.[Zn+2] [ZnPP, zinc protoporphyrin]",IL-6 in response to CpG,"HO-1 [2]; ZnPP 3 μM, BMDMs",increased levels
same,TNFα in response to CpG,"HO-1 [2]; ZnPP 3 μM, BMDMs",increased levels
same,production of IL-10,"HO-1 [2]; ZnPP 3 μM, BMDMs stimulated with CpG",substantially reduced
same,IL-10,"HO-1 [2]; ZnPP, CpG-treated HMOX1^WT BMDM",blocked
same,residual IL-10,"HO-1 [2]; ZnPP, CpG-treated HMOX1^fl/fl BMDM",without showing any effect
"[C-]#[O+].[C-]#[O+].[C-]#[O+].[C-]#[O+].[C-]#[O+].[C-]#[O+].[Cl][Ru][Cl].[Cl][Ru][Cl] [CORM2, carbon monoxide-releasing molecule [CORM] 2]",IL-10,HO-1 [2]; CORM2 in BMDM not inhibited by ZnPP or genetically sufficient for HO-1,no additional effect
same,IL-10,HO-1 [2]; CORM2 in HMOX1^fl/fl BMDMs,rescue
same,IL-10 levels,"HO-1 [2]; CORM2 in ZnPP treated BMDMs, CpG 1 μg/ml",restored IL-10 levels to normal
B1,HO-1 induction in spleen,HO-1 [3],did not induce HO-1
